# Results as given in PubChem BioAssay AID1919005 (Molecular Pharmacology Branch, DTP, NCI, 2023).
# pIC50: −log10 of the molar value.
# System: 855422-203-R-J1-PDC complex spheroid growth
# Test: Anticancer human tumor 855422-203-R-J1-PDC patient-derived bladder carcinoma cell line growth inhibition [AhR]
# Conditions: for pIC50: curve of first compound; for viability, T/C: stronger effect = lower value
# Source text: Multicellular complex tumor spheroid response to aryl hydrocarbon receptor antagonists in combination with a variety of drugs and investigational agents in selected tumor cell lines
# The current study was undertaken to assess response to aryl hydrocarbon receptor antagonists in combination with standard-of-care drugs and investigational agents in solid tumor complex spheroid models. Complex spheroids include a stromal component modeled by human endothelial cells (HUVEC) and fibroblasts modeled by human mesenchymal stem cells (MSCs). The concentration ranges selected for each drug and investigational agent were based upon clinically achievable concentrations if the clinical Cmax of the agent was known.
# Compounds. The drugs and investigational agents: BAY 2416964 (NSC825713), GNF351 (NSC835774), CH-223191 (NSC835775), CPI-455 (NSC825282), aza-TdCyd (NSC777586), decitabine (NSC127716), belinostat (NSC758774), entinostat (NSC756642), pevonedistat (NSC761192), tazemetostat (NSC777109), talazoparib (NSC765396), olaparib (NSC753686), selinexor (NSC780203), nedisertib (M3814, NSC802822), bortezomib (NSC756655), venetoclax (NSC766270), doxorubicin (NSC123127), elimusertib (BAY189344, NSC800525), ceralasertib (AZD6738, NSC777638), TAK-243 (NSC785004), alisertib (NSC759677), etoposide (NSC141540), topotecan (NSC609699), eribulin (NSC707389), gemcitabine (NSC613327), carboplatin (NSC241240), cisplatin (NSC119875), and SN-38 (NSC673596) were obtained from the National Cancer Institute (NCI) Developmental Therapeutics Program Chemical Repository (32). The FDA-approved anticancer drug set is available from the Developmental Therapeutics Program at https://dtp.cancer.gov/organization/dscb/obtaining/available plates.htm. […] The stock solutions were prepared in dimethyl sulfoxide (DMSO, Sigma-Aldrich, St. Louis, MO, cat. D2650), except for the platinum compounds which were prepared in saline (Quality Biological, Gaithersburg, MD, cat. 114-055-101), at 800-fold the tested concentration and stored at -70 degrees C prior to their use. All drugs and investigational agents were tested over a range starting from a high concentration at or near the clinical Cmax and decreasing in half-log increments. If the clinical Cmax for an agent had not been determined, the highest concentration tested was 10 microM (Table 1).
# Cell Culture. All cells were maintained in an incubator at 37 degrees C and 5% CO2 with 95% humidity. The PDC lines were cultured according to standard operating procedures established by the NCI PDMR (https://pdmr.cancer.gov). Briefly, all PDCs were thawed and cultured in Matrigel-coated flasks prepared with a working solution of 1X Ham's F-12 nutrient mix, without supplementation (Invitrogen, Waltham, MA, cat. 11765054), 100 U/mL penicillin-streptomycin (Invitrogen, cat. 15140122), and 2.5% Matrigel (Corning Inc., Corning, NY, cat. 354248) for the first three passages. All PDCs were cultured in complete DMEM/F-12 media containing advanced DMEM/F-12 (Invitrogen, cat. 12634028), 4.9% defined fetal bovine serum, heat inactivated (HyClone Laboratories Inc., Logan, UT, cat. SH30070.03HI), 389 ng/mL hydrocortisone (Sigma-Aldrich, cat. H4001), 9.7 ng/mL human EGF recombinant protein (Invitrogen, cat. PHG0313), 23.4 microg/mL adenine (Sigma-Aldrich, cat. A2786), 97.3 U/mL penicillin-streptomycin (Invitrogen, cat. 15140122), 1.9 mM L-glutamine (Invitrogen, cat. 25030081), and 9.7 microM Y-27632 dihydrochloride (Tocris Bioscience, Bristol, United Kingdom, cat. 1254). The PDCs were cultured in complete DMEM/F12 media without 10 microM Y-27632 dihydrochloride for at least two passages prior to the screen. The established cell lines NCI-H1341 and […] were cultured in DMEM/F-12, HEPES (Invitrogen, cat. 11330032), 5% defined fetal bovine serum (HyClone Laboratories Inc., cat. SH30070.03), ITS premix universal culture supplement [insulin (5 microg/mL), transferrin (5 microg/mL), and selenious acid (5 ng/mL)] […]
# [1] = second compound 0.1 µM, first compound 0.000316 µM
# [2] = second compound 0.1 µM, first compound 0.001 µM
# [3] = second compound 0.1 µM, first compound 0.00316 µM
# [4] = second compound 0.1 µM, first compound 0.01 µM
# [5] = second compound 0.1 µM, first compound 0.0316 µM
# [6] = second compound 0.1 µM, first compound 0.1 µM
# [7] = second compound 0.316 µM, first compound 0.000316 µM
# [8] = second compound 0.316 µM, first compound 0.001 µM
# [9] = second compound 0.316 µM, first compound 0.00316 µM
# [10] = second compound 0.316 µM, first compound 0.01 µM
# [11] = second compound 0.316 µM, first compound 0.0316 µM
# [12] = second compound 0.316 µM, first compound 0.1 µM
# [13] = second compound 1 µM, first compound 0.000316 µM
# [14] = second compound 1 µM, first compound 0.001 µM
# [15] = second compound 1 µM, first compound 0.00316 µM
# [16] = second compound 1 µM, first compound 0.01 µM
# [17] = second compound 1 µM, first compound 0.0316 µM
# [18] = second compound 1 µM, first compound 0.1 µM
# [19] = second compound 3.16 µM, first compound 0.000316 µM
# [20] = second compound 3.16 µM, first compound 0.001 µM
# [21] = second compound 3.16 µM, first compound 0.00316 µM
# [22] = second compound 3.16 µM, first compound 0.01 µM
# [23] = second compound 3.16 µM, first compound 0.0316 µM
# [24] = second compound 3.16 µM, first compound 0.1 µM
# [25] = second compound 10 µM, first compound 0.000316 µM
# [26] = second compound 10 µM, first compound 0.001 µM
# [27] = second compound 10 µM, first compound 0.00316 µM
# [28] = second compound 10 µM, first compound 0.01 µM
# [29] = second compound 10 µM, first compound 0.0316 µM
# [30] = second compound 10 µM, first compound 0.1 µM
# 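Further: spheroids exposed to agents for seven days before readout.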
# 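Wherever viability, T/C is given: percent of DMSO vehicle control luminescence viability.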
SMILES,pIC50 (second compound 0.1 µM),pIC50 (second compound 0.316 µM),pIC50 (second compound 1 µM),pIC50 (second compound 3.16 µM),pIC50 (second compound 10 µM),"viability, T/C [1] [%]","viability, T/C [2] [%]","viability, T/C [3] [%]","viability, T/C [4] [%]","viability, T/C [5] [%]","viability, T/C [6] [%]","viability, T/C [7] [%]","viability, T/C [8] [%]","viability, T/C [9] [%]","viability, T/C [10] [%]","viability, T/C [11] [%]","viability, T/C [12] [%]","viability, T/C [13] [%]","viability, T/C [14] [%]","viability, T/C [15] [%]",further results
CC[C@@]1(O)C(=O)OCc2c1cc1n(c2=O)Cc2cc3c(CN(C)C)c(O)ccc3nc2-1 + Cc1cncc(-c2nc(NCCc3c[nH]c4ccccc34)c3ncn(C(C)C)c3n2)c1,7.42,7.47,7.59,7.74,> 9.50,95.4,85.9,103,91.5,56.8,13.1,89.6,87.1,93.6,89.6,52.2,11.6,91.4,90.6,80.8,"viability, T/C [16]: 78.1%; viability, T/C [17]: 43.6%; viability, T/C [18]: 12%; viability, T/C [19]: 77.3%; viability, T/C [20]: 83.7%; viability, T/C [21]: 74.3%; viability, T/C [22]: 68.5%; viability, T/C [23]: 33%; viability, T/C [24]: 11.7%; viability, T/C [25]: 13.4%; viability, T/C [26]: 8.89%; viability, T/C [27]: 4.65%; viability, T/C [28]: 6.18%; viability, T/C [29]: 3.7%; viability, T/C [30]: 1.73%"
Cn1ncnc1C1c2n[nH]c(=O)c3cc(F)cc(c23)NC1c1ccc(F)cc1 (stereo not given) + Cc1cncc(-c2nc(NCCc3c[nH]c4ccccc34)c3ncn(C(C)C)c3n2)c1,< 7.00,< 7.00,< 7.00,< 7.00,> 9.50,84.1,85.3,87.6,95.9,87.8,88.2,91.7,80.8,73.1,88.5,90.3,81.6,81.3,86.2,76.4,"viability, T/C [16]: 78.3%; viability, T/C [17]: 77.2%; viability, T/C [18]: 84%; viability, T/C [19]: 67.6%; viability, T/C [20]: 74.4%; viability, T/C [21]: 71.4%; viability, T/C [22]: 56.6%; viability, T/C [23]: 76.9%; viability, T/C [24]: 75.2%; viability, T/C [25]: 30.7%; viability, T/C [26]: 29.6%; viability, T/C [27]: 21.5%; viability, T/C [28]: 5.12%; viability, T/C [29]: 23.6%; viability, T/C [30]: 26.1%"
